Assay results: patent EP1994923A2, “Cosmetic and dermatological compositions for dry skin” (Henkel AG & Co. KGaA, priority 2007, dated 2008)

Test system: Aquaporine (AQ3)
Assay: Influence on aquaporin synthesis in a skin model (indirect immunohistology)
Assay type: cell-based
Details: skin model as in WO 03/053394 A2; 10 mg/ml test solution (extracts: 10 mg dry substance per ml); added systemically to the medium every two days; frozen after 6 days; cryosections
Procedure: An einem Hautmodell, wie in WO 03/053394 A2 beschrieben, wurde der Einfluss folgender Substanzen auf die Aquaporinsynthese überprüft: • 1.) Ergothionein (10 mg/ml Testlösung) • 2.) Wässriger Extrakt aus Laminaria digitata (mit einem hohen Anteil an Laminarin; verwendet wurde das Handelsprodukt Phycojuvenine in einer solchen Menge, dass die Testlösung eine Konzentration von 10 mg Extrakt-Trockensubstanz pro ml aufwies) • 3.) Wässriges Proteinhydrolysat von Hefeproteinen (verwendet wurde das Handelsprodukt Biodynes TRF Powder von Arch Chemicals Inc. in einer von 10 mg Extrakt-Trockensubstanz pro ml Testlösung)
Die Hautmodelle wurden nach Ankunft in frisches Medium gesetzt. Nach Vorinkubation über Nacht wurden sie alle zwei Tage mit den Testsubstanzen behandelt, indem der Wirkstoff systemisch in das Medium gegeben wurde. Die Kulturen wurden nach 6 Tagen für Cryoschnitte bei -80 °C eingefroren. Zum Zeitpunkt 0 wurden Kontrollproben eingefroren.
Zum Nachweis von Aquaporinen (AQ3) wurde die indirekte Immunhistologie angewendet. Hierbei bindet ein unkonjungierter Primärantikörper an das Antigen. Anschließend wird ein Sekundärantikörper eingesetzt, der gegen den Primärantikörper gerichtet ist.

`C[N+](C)(C)[C@@H](Cc1cnc(S)[nH]1)C(=O)[O-]` [Ergothionein, 2-Mercapto-N^αN^αN^α-trimethyl-L-histidinium-Betain] was tested, and the “Aquaporinsynthese (Induktion der Aquaporine (AQ3))” value was “stimulierten”.
